Measured values reported in publication PMC11606603, “The membrane domains of mammalian adenylyl cyclases are lipid receptors” (eLife, 2024).
Values joined by “and” are separate entries in the source; they are usually repeats but may differ in a detail not shown here. Equal values may be shown once.

Assays:
Format in all cases: biochemical
mAC9 = molecular target: T1, mAC9 (Homo sapiens, UniProt O60503); test: AC assay, Gsα-stimulated mAC9 in membranes from transfected HEK293 cells; settings: 300 nM Gsα, single experiments
T1 construct: Human mAC genes were from GenScript and fitted with a C-terminal FLAG-tag; FLAG (C); made in house; host or cells: HEK293, permanently transfected; membrane preparation
Procedure: (§1) hAC sequences were from NCBI were: ADCY1: NM_021116.3; ADCY2: NM_020546.2; ADCY3: NM_004036.4; ADCY4: NM_001198568.2; ADCY5: NM_183357.2; ADCY6: NM_015270.4; ADCY7: NM_001114.4; ADCY8: NM_001115.2; ADCY9: NM_001116.3. Human mAC genes were from GenScript and fitted with a C-terminal FLAG-tag. […] The gene was synthesized by GenScript. HEK293 cells were maintained in Dulbeccos Modified Eagle Medium (DMEM) with 10% fetal bovine serum at 37°C and 5% CO2. Transfection with AC plasmids was with PolyJet (SignaGen, Frederick, MD, USA). Permanent cell lines were generated by selection for 7 days with 600 µg/ml G418 and maintained with 300 µg/ml For membrane preparation, cells were tyrpsinized, collected by centrifugation (3000 × g, 5 min) and lysed and homogenized in 20 mM HEPES, pH 7.5, 1 mM Ethylenediaminetetraacetic acid (EDTA), 2 mM MgCl2, 1 mM Dithiothreitol (DTT), one tablet of cOmplete, EDTA-free (per 50 ml) and 250 mM sucrose by 20 strokes in a potter homogenizer on ice. Debris was removed (5 min at 1000 × g, 0°C), membranes were collected at 100,000 × g, 60 min at 0°C, suspended and stored at −80°C in 20 mM MOPS, pH 7.5, 0.5 mM EDTA, 2 mM MgCl2. […] Three cerebral cortices were dissected and homogenized in 4.5 ml cold 48 mM Tris–HCl, pH 7.4, 12 mM MgC1_2, and 0.1 mM Ethylene glycol-bis(β-aminoethyl ether)-N,N,N′,N′-tetraacetic acid (EGTA) with a Polytron hand disperser (Kinematica AG, Switzerland). […] The pellet was washed once with 5 ml 1 mM KHCO3. The final suspension in 2 ml 1 mM KHCO3 was stored in aliquots at −80°C.
(§2) In a volume of 10 μl, AC activities were measured using 1 mM ATP, 2 mM MgCl2, 3 mM creatine phosphate, 60 μg/ml creatine kinase, and 50 mM MOPS pH 7.5. The cAMP assay kit from Cisbio (Codolet, France) was used for detection according to the supplier’s instructions. For each assay, a cAMP standard curve was established. EC50 and IC50 values were calculated by GraphPad Prism version 8.4.3 for Windows, GraphPad Software, San Diego, CA, USA, https://www.graphpad.com .

mAC4 = molecular target: T2, mAC4 (Homo sapiens, UniProt Q8NFM4); test: AC assay, Gsα-stimulated mAC4 in membranes from transfected HEK293 cells; settings: 20 µM fatty acid; 300 nM Gsα; single experiments
T2 construct: Human mAC genes were from GenScript and fitted with a C-terminal FLAG-tag; FLAG (C); made in house; host or cells: HEK293, permanently transfected; membrane preparation
T2 sequence (Q8NFM4 1-1077): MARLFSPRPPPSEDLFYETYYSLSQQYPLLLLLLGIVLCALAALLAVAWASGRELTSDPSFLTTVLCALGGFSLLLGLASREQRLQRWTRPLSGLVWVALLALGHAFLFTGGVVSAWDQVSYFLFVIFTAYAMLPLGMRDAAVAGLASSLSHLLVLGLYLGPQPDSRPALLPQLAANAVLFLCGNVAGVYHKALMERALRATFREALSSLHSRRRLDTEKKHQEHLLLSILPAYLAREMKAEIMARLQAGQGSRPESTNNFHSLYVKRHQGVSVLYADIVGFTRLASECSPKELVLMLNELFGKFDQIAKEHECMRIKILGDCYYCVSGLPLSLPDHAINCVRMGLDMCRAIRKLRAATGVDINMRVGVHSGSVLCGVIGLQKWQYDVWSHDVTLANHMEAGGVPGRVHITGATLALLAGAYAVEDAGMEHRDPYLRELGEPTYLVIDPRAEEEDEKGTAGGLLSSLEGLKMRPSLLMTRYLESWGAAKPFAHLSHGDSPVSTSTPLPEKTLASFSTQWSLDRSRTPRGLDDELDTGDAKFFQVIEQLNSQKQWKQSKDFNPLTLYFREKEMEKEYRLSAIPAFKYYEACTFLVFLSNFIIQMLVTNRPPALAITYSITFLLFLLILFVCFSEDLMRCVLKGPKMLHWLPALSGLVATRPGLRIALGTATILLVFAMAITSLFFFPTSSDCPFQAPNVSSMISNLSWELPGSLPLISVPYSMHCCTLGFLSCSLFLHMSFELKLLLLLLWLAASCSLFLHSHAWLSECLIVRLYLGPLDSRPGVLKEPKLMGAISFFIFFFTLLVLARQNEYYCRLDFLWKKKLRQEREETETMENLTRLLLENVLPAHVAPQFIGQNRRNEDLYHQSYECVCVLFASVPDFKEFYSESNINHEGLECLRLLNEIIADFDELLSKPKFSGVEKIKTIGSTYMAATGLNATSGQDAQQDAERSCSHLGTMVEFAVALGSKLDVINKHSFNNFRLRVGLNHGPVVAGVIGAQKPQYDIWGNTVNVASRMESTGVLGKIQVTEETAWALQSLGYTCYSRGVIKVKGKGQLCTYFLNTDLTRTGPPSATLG
Procedure: as §1, §2

mAC6 = molecular target: T3, mAC6 (Homo sapiens, UniProt O43306); test: AC assay, Gsα-stimulated mAC6 in membranes from transfected HEK293 cells; settings: 20µM fatty acid concentration
T3 construct: Human mAC genes were from GenScript and fitted with a C-terminal FLAG-tag; FLAG (C); made in house; host or cells: HEK293, permanently transfected; membrane preparation
Procedure: as §1, §2

mAC2 = molecular target: T4, mAC2 (Homo sapiens, UniProt Q08462); test: AC assay, Gsα-stimulated mAC2 in membranes from transfected HEK293 cells; settings: Figure 5-figure supplement 1 left, 20 µM
T4 construct: Human mAC genes were from GenScript and fitted with a C-terminal FLAG-tag; FLAG (C); made in house; host or cells: HEK293, permanently transfected; membrane preparation
Procedure: as §1, §2

mAC1 = molecular target: T5, mAC1 (Homo sapiens, UniProt Q08828); test: AC assay, Gsα-stimulated mAC1 in membranes from transfected HEK293 cells; settings: 20 µM fatty acid; 300 nM Gsα; single experiments
T5 construct: Human mAC genes were from GenScript and fitted with a C-terminal FLAG-tag; FLAG (C); made in house; host or cells: HEK293, permanently transfected; membrane preparation
Procedure: as §1, §2

mAC5 = molecular target: T6, mAC5 (Homo sapiens, UniProt O95622); test: AC assay, Gsα-stimulated mAC5 in membranes from transfected HEK293 cells; settings: 20µM fatty acid concentration
T6 construct: Human mAC genes were from GenScript and fitted with a C-terminal FLAG-tag; FLAG (C); made in house; host or cells: HEK293, permanently transfected; membrane preparation
Procedure: as §1, §2

mAC3 = molecular target: T7, mAC3 (Homo sapiens, UniProt O60266); test: AC assay, Gsα-stimulated mAC3 in membranes from transfected HEK293 cells; settings: for mAC3 activity [%] (100% = 300nM Gsα stimulation): fatty acid 20 µM, individual experiments
T7 construct: Human mAC genes were from GenScript and fitted with a C-terminal FLAG-tag; FLAG (C); made in house; host or cells: HEK293, permanently transfected; membrane preparation
Procedure: as §1, §2

mAC7 = molecular target: T8, mAC7 (Homo sapiens, UniProt P51828); test: AC assay, Gsα-stimulated mAC7 in membranes from transfected HEK293 cells; settings: Figure 5-figure supplement 2 left, 20 µM
T8 construct: Human mAC genes were from GenScript and fitted with a C-terminal FLAG-tag; FLAG (C); made in house; host or cells: HEK293, permanently transfected; membrane preparation
Procedure: as §1, §2

T3 sequence (O43306 whole entry): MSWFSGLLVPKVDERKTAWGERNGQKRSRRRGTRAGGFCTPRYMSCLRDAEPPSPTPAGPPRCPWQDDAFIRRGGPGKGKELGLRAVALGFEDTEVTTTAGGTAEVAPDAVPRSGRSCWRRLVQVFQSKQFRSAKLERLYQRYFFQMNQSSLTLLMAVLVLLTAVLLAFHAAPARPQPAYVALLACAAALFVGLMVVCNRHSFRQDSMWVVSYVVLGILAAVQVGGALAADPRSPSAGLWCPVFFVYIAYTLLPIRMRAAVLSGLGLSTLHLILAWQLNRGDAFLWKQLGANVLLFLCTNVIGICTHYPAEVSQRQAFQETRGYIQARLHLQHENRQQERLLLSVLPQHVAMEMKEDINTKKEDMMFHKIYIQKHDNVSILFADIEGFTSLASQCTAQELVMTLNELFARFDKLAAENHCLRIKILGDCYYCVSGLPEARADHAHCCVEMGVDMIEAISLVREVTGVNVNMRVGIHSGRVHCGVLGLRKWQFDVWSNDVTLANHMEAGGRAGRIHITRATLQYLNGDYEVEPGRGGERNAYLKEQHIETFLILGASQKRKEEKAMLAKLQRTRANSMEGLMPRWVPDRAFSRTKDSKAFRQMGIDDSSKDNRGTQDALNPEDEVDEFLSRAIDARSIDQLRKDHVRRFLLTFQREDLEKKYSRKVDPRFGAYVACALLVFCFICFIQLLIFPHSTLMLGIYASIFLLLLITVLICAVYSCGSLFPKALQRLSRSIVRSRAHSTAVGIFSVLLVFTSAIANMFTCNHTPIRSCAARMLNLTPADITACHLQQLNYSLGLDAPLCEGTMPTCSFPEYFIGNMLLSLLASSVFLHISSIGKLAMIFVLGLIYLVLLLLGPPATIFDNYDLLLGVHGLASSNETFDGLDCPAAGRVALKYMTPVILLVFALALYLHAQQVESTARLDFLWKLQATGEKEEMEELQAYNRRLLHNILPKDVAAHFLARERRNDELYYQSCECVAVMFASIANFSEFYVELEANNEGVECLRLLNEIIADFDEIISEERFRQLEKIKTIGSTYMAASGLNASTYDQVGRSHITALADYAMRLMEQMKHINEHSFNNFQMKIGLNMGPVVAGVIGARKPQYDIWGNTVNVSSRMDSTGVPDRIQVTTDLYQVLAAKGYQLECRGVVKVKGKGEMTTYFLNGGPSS
T6 sequence (O95622 whole entry): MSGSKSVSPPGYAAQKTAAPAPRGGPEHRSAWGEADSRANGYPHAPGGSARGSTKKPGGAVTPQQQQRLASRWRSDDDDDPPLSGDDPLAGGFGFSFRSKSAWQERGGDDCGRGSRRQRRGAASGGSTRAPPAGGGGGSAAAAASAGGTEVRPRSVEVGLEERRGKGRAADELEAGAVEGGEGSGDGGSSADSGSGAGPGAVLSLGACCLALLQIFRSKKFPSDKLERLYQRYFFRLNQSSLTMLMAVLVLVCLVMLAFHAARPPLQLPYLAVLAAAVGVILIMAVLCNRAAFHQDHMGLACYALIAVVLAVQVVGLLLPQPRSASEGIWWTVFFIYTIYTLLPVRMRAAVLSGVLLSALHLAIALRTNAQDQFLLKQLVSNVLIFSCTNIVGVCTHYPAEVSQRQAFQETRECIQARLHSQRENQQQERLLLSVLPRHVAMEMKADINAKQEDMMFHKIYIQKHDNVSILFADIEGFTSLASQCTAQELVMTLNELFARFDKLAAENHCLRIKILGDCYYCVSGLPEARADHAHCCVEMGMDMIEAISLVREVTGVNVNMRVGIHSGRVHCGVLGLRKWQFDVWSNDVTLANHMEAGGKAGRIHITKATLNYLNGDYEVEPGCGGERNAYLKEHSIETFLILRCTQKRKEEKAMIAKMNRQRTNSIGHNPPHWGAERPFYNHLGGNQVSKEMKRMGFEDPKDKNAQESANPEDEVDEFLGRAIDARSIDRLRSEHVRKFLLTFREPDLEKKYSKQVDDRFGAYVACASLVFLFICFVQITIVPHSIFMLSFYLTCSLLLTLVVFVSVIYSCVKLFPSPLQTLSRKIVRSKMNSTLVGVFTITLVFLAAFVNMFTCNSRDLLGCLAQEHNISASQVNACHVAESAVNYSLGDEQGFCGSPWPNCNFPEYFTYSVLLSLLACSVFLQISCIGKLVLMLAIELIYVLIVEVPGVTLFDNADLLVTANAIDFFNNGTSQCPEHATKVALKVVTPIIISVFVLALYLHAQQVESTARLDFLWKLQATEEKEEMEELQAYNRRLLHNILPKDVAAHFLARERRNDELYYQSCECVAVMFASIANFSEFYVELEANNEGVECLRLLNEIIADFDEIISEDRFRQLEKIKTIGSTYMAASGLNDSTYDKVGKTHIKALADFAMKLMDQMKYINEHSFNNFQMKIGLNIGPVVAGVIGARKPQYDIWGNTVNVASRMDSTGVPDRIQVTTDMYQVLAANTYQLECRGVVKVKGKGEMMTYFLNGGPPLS
T1 sequence (O60503 whole entry): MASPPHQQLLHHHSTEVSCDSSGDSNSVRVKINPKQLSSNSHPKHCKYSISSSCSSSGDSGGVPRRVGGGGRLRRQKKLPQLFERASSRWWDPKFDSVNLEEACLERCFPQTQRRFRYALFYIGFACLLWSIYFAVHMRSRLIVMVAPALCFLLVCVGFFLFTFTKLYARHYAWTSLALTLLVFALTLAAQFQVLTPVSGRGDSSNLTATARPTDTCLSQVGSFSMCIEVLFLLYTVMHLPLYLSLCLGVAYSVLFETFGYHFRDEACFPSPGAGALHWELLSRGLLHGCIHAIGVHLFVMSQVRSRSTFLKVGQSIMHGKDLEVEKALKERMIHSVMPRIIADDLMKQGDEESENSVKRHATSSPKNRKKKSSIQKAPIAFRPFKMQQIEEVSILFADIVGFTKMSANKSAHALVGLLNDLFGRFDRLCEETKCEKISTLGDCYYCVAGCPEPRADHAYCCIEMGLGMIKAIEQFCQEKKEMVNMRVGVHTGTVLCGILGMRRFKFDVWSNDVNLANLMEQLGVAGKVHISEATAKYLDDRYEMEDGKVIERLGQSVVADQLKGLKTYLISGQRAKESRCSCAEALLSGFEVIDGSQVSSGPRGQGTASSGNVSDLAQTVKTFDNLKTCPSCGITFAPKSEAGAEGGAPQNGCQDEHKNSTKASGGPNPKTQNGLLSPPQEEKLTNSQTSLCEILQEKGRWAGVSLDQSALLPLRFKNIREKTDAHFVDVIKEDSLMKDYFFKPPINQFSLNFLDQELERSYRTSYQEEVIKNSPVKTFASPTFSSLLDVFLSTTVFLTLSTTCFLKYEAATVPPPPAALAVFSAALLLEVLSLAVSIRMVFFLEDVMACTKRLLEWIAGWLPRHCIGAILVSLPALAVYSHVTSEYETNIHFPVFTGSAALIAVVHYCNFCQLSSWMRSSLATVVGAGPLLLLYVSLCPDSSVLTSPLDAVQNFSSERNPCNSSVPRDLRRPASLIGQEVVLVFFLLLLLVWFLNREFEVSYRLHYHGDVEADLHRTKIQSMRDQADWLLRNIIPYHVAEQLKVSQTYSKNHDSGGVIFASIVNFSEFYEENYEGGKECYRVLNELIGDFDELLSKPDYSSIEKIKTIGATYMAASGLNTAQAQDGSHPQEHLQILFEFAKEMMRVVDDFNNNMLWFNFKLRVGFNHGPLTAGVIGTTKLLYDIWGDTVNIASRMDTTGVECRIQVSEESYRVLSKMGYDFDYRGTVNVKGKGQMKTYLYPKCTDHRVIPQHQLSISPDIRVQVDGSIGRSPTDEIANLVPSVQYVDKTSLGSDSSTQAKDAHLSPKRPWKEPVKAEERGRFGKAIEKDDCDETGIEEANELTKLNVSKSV
T1 sequence (P63092 2-394 Q227L partner): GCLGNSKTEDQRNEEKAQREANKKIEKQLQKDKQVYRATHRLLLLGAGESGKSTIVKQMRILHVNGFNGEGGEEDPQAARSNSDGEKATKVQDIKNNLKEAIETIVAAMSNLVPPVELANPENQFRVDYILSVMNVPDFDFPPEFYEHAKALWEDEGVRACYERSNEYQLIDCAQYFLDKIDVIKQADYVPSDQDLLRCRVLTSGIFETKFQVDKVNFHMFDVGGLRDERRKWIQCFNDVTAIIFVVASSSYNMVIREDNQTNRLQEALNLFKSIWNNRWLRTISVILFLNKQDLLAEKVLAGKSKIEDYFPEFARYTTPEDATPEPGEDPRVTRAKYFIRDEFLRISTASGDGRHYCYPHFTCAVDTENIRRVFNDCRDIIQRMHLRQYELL

Molecule	mAC9 activity (%);(100% = Gsα stimulation) stimulated by 300nM Gsα (mAC9; 3 µM fatty acid)	mAC9 activity (%);(100% = Gsα stimulation) stimulated by 300nM Gsα (mAC9; 6 µM fatty acid)	mAC4 activity [%] (100% = 300nM Gsα stimulation); 20µM fatty acid concentration (mAC4)	mAC6 activity [%] (100% = 300nM Gsα stimulation) (mAC6)	mAC2 activity [%] (100% = 300nM Gsα stimulation); 20µM fatty acid concentration (mAC2)	mAC1 activity [%] (100% = 300nM Gsα stimulation); 20µM fatty acid concentration (mAC1)	mAC5 activity [%] (100% = 300nM Gsα stimulation) (mAC5)	Effect of lipid on 300 nM Gsα-stimulated mAC3 (mAC3; 20 µM, in words)	mAC3 activity [%] (100% = 300nM Gsα stimulation) (mAC3)	mAC9 activity [%] (100% = 300nM Gsα stimulation); 20µM fatty acid concentration (mAC9)	mAC7 activity [%] (100% = 300nM Gsα stimulation); 20µM fatty acid concentration (mAC7)
CC/C=C\C/C=C\C/C=C\CCCCCCCC(=O)O [Linolenic acid, Linolenic ((9Z,12Z,15Z)-octadecatrienoic) acid]	144% and 110% and 75%	125% and 149% and 124% and 119% and 96%	62% and 65% and 86%	103% and 104%	99% and 105%	63% and 90%	79% and 81%	less efficacious	159% and 177% and 241% and 105% and 288% and 273%		
Triolein							95%		96%	107%	83%
O=C(O)CCCCCCCCCCCCCCCCCCC(=O)O [Octadecane-(COOH)2, 1,18-Octadecanedicarboxylic acid]			91% and 73%	83% and 136% and 76%	101% and 81% and 91%	88% and 87% and 108%	102% and 118% and 78%		104% and 106% and 66%	102% and 67%	81% and 97%
